Data reported in US4071627A, “2-Oximino-tetrahydro-1,4-thiazin-5-one compounds and pesticidal carbamate derivatives” (priority 1976, dated 1978).

Columns and labels:
Format in all cases: in vivo
Design in all cases: key: A: excellent control; B: partial control; C: no control
[1] = test system: bean aphid (Aphis fabae Scop.); test: Bean Aphid Foliage Spray Test; details: 500 ppm, 24 hours, adults and nymphs
Description: (§1) Suspensions of the test compounds were prepared by dissolving one gram of compound in 50 milliliters of acetone in which had been dissolved 0.1 gram (10 percent of the weight of compound) of an alkylphenoxy polyethoxyethanol surfactant, as an emulsifying or dispersing agent. The resulting solution was mixed into 150 milliliters of water to give roughly 200 milliliters of a suspension containing the compound in finely divided form. The thus-prepared stock suspension contained 0.5 percent by weight of test compound. The test concentrations in parts per million by weight employed in the tests described hereinbelow were obtained by appropriate dilutions of the stock suspension with water. The test procedures were as follows:
Adults and nymphal stages of the bean aphid (Aphis fabae Scop.) reared on potted dwarf nasturtium plants at 65°-70° F. and 50-70 percent relative humidity, constituted the test insects. For testing purposes, the number of aphids per pot was standardized to 100-150 by trimming plants containing excess aphids.
The test compounds were formulated by diluting the stock suspension with water to give a suspension containing 500 parts of test compound per million parts of final formulation.
The potted plants (one pot per compound tested) infested with 100-150 aphids, were placed on a revolving turntable and sprayed with 100-110 milliliters of test compound formulated by use of a DeVilbiss spray gun set at 40 psig. air pressure. This application, which lasted 25 seconds, was sufficient to wet the plants to run-off. As a control, 100-110 milliliters of a water-acetone-emulsifier solution containing no test compound were also sprayed on infested plants. After spraying, the pots were placed on their sides on a sheet of white standard mimeograph paper which had been previously ruled to facilitate counting. Temperature and humidity in the test room during the 24 hour holding period were 65°-70° F. and 50-70 percent, respectively. Aphids which fell onto the paper and were unable to remain standing after being uprighted were considered dead. Aphids remaining on the plants were observed closely for movement and those which were unable to move the length of the body upon stimulation by prodding were considered dead. Percent mortality was recorded for various concentration levels.
(§2) In these tests the pesticidal activity of the compounds against aphid, mite, Southern Armyworm, Mexican Bean Beetle, and house fly was rated as follows: […]

[2] = test system: southern armyworm (Prodenia eridania, (Cram.)); test: Southern Armyworm Leaf Spray Test; details: 500 ppm, three days, larvae
Description: as §1
Larvae of the southern armyworm (Prodenia eridania, (Cram.)), reared on Tendergreen bean plants at a temperature of 80°±5° F. and a relative humidity of 50±5 percent, constituted the test insects.
The test compounds were formulated by diluting the stock suspension with water to give a suspension containing 500 parts of test compound per million parts of final formulation. Potted Tendergreen bean plants of standard height and age were placed on a revolving turntable and sprayed with 100-110 milliliters of test compound formulation by use of a DeVilbiss spray gun set at 10 psig air pressure. This application, which lasted 25 seconds, was sufficient to wet plants to run-off. As a control, 100-110 milliliters of a water-acetone-emulsifier solution containing no test compound were also sprayed on infested plants. When dry, the paired leaves were separated and each one was placed in a 9 centimeter Petri dish lined with moistened filter paper. Five randomly selected larvae were introduced into each dish and the dishes were closed. The closed dishes were labeled and held at 80°-85° F. for three days. Although the larvae cound easily consume the whole leaf within 24 hours, no more food was added. Larvae which were unable to move the length of the body, even upon stimulation by prodding, were considered dead. Percent mortality was […] for various concentration levels.
as §2

[3] = test system: Mexican bean beetle (Epilachna varivestis, Muls.); test: Mexican Bean Beetle Leaf Spray Test; details: 500 ppm, three days, fourth instar larvae
Description: as §1
Fourth instar larvae of the Mexican bean beetle (Epilachna varivestis, Muls.), reared on Tendergreen bean plants at a temperature of 80°±5° F. and 50±5 percent relative humidity, were the test insects.
The test compounds were formulated by diluting the stock suspension with water to give a suspension containing 500 parts of test compound per million parts of final formation. Potted Tendergreen bean plants of standard height and age were placed on a revolving turntable and sprayed with 100-110 milliliters of test compound formulated by use of a DeVilbiss spray gun set at 10 psig air pressure. This application, which lasted 25 seconds, was sufficient to wet plants to run-off. As a control, 100-110 milliliters of a water-acetone-emulsifier solution containing no test compound were also sprayed on infested plants. When dry, the paired leaves were separated and each was placed in a 9 centimeter Petri dish lined with moistened filter paper. Five randomly selected larvae were introduced into each dish, and the dishes were closed. The closed dishes were labeled and held at a temperature of 80°±5° F. for three days. Although the larvae could easily consume the leaf within 24 to 48 hours, no more food was added. Larvae which were unable to move the length of the body, even upon stimulation, were considered dead.
as §2

[4] = test system: house flies (Musca domestica, L.); test: Fly Bait Test; details: 500 ppm, 24 hours, adults
Description: as §1
Four to six day old adult house flies (Musca domestica, L.), reared according to the specifications of the Chemical Specialities Manufacturing Association (Blue Book, McNair-Dorland Co., N.Y. 1954; pages 243-244, 261) under controlled conditions of 80°±5° F. and 50±5 percent relative humidity, were the test insects. The flies were immobilized by anesthetizing with carbon dioxide and 25 immobilized individuals, males and females, were transferred to a cage consisting of a standard food strainer about 5 inches in diameter which was inverted over a wrapping-paper-covered surface. The test compounds were formulated by diluting the stock suspension with a 10 percent (by weight) sugar solution to give a suspension containing 500 parts of test compound per million parts of final formulation, by weight. Ten milliliters of the test formulation were added to a souffle cup containing a 1-inch square of an absorbent cotton pad. This bait cup was introduced and centered on the blotting paper under the food strainer prior to admitting the anesthetized flies. The caged flies were allowed to feed on the bait for 24 hours, at a temperature of 80°±5° F. and the relative humidity of 50±5 percent.
as §2

[5] = test system: two-spotted mite (Tetranychus urticae Koch); test: Mite Foliage Spray Test; details: 500 ppm, six days, adults and nymphs
Description: as §1
Adults and nymphal stages of the two-spotted mite (Tetranychus urticae Koch), reared on Tengergreen bean plants at 80±5 percent relative humidity, were the test organisms. Infested leaves from a stock culture were placed on the primary leaves of two bean plants 6 to 8 inches in height, growing in a 21/2 inch clay pot. 150-200 Mites, a sufficient number for testing, transferred from the excised leaves to the fresh plants in a period of 24 hours. Following the 24 hour transfer period, the excised leaves were removed from the infested plants. The test compounds were formulated by diluting the stock suspension with water to give a suspension containing 500 parts of test compound per million parts of final formulation. The potted plants (one pot per compound) were placed on a revolving turntable and sprayed with 100-110 milliliters of test compound formulation by use of a DeVilbiss spray gun set at 40 psig. air pressure. This application, which lasted 25 seconds, was sufficient to wet the plants to run-off. As a control, 100-110 milliliters of a water solution containing acetone and emulsifier in the same concentrations as the test compound formulation, but containing no test compound, were also sprayed on infested plants. The sprayed plants were held at 80±5 percent relative humidity for six days, after which a mortality count of motile forms was made. Microscopic examination for motile forms was made on the leaves of the test plants. Any individual which was capable of locomotion upon prodding was considering living.
as §2

Row | SMILES | Biological Activity, Aphid [1] | Biological Activity, Southern Armyworm [2] | Biological Activity, Mexican Bean Beetle [3] | Biological Activity, House Fly [4] | Biological Activity, Mite [5]
1 | CN1C(=O)CSC(=NO)C1(C)C [2-Oximino-3,3,4-trimethyltetrahydro-1,4-thiazin-5-one] | C | C | C | C | C
2 | CC1C(=NO)SCC(=O)N1C (stereo not shown) [2-Oximino-3,4-dimethyltetrahydro-1,4-thiazin-5-one] |  | C | C | C | C
3 | CCCCN1C(=O)CSC(=NO)C1C (stereo not shown) [2-Oximino-4-butyl-3-methyltetrahydro-1,4-thiazin-5-one] | C | C | C | C | C
4 | CCN1C(=O)CSC(=NO)C1C (stereo not shown) [2-Oximino-4-ethyl-3-methyltetrahydro-1,4-thiazin-5-one] | C | C | C | C | C
5 | CC(C)CN1C(=O)CSC(=NO)C1C (stereo not shown) [2-Oximino-4-isobutyl-3-methyltetrahydro-1,4-thiazin-5-one] | C | C | C | C | C
6 | CNC(=O)ON=C1SCC(=O)N(C)C1(C)C [2-[O-(Methylcarbamoyl)oximino]-3,3,4-trimethyltetrahydro-1,4-thiazin-5-one] | B | B | A | A | A
7 | CNC(=O)ON=C1SCC(=O)NC1(C)C [2-[O-(Methylcarbamoyl)oximino]-3,3-dimethyltetrahydro-1,4-thiazin-5-one] | A | A | A | A | A
8 | CCCCN1C(=O)CSC(=NOC(=O)NC)C1C (stereo not shown) [2-[O-(Methylcarbamoyl)oximino]-4-butyl-3-methyltetrahydro-1,4-thiazin-5-one] | C | C | B | B | C
9 | CCN1C(=O)CSC(=NOC(=O)NC)C1C (stereo not shown) [2-[O-(Methylcarbamoyl)oximino]-4-ethyl-3-methyltetrahydro-1,4-thiazin-5-one] | B | B | B | A | A
10 | CNC(=O)ON=C1SCC(=O)N(CC(C)C)C1C (stereo not shown) [2-[O-(Methylcarbamoyl)oximino]-4-isobutyl-3-methyltetrahydro-1,4-thiazin-5-one] | C | C | C | A | C
11 | CNC(=O)ON=C1SCC(=O)N(C(C)C)C1C (stereo not shown) [2-[O-(Methylcarbamoyl)oximino]-4-isopropyl-3-methyltetrahydro-1,4-thiazin-5-one] | C | C | C | A | B
12 | CC(=O)N(C)C(=O)ON=C1SCC(=O)N(C)C1C (stereo not shown) [2-[O-(N-Acetyl-N-methylcarbamoyl)oximino]-3,4-dimethyltetrahydro-1,4-thiazin-5-one] | C | A | C | C | C
13 | CN(C)SN(C)C(=O)ON=C1SCC(=O)NC1(C)C [2-[O-(N-Dimethylaminosulfenyl-N-methylcarbamoyl)oximino]-3,3-dimethyltetrahydro-1,4-thiazin-5-one] | A | A | A | A | A
14 | CN(SN1CCOCC1)C(=O)ON=C1SCC(=O)NC1(C)C [2-[O-(N-Morpholinosulfenyl-N-methylcarbamoyl)oximino]-3,3-dimethyltetrahydro-1,4-thiazin-5-one] | A | A | A | A | 
15 | CNC(=O)ON=C1SCC(=O)N(C)C1C (stereo not shown) [2-[O-(methylcarbamoyl)oximino]-3,4-dimethyltetrahydro-1,4-thiazin-5-one] | A | C | A | A | A
